From PubChem BioAssay (NCI)
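All cell lines were grown in 96-well plates and treated with compound for 48 hours. The concentration for 50% growth inhibition is given as GI50. TGI denotes the concentration required for complete inhibition of growth.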

Legend:
Assay in all cases: DTP human tumour cell line panel, 48 h
[1] = test system: HOP-92 NSCLC
[2] = test system: MOLT-4 leukemia
[3] = test system: TK-10 renal
[4] = test system: UACC-62 melanoma
[5] = test system: LOX IMVI melanoma
[6] = test system: SNB-19 CNS
[7] = test system: MDA-MB-468 breast
[8] = test system: CCRF-CEM leukemia
[9] = test system: DU-145 prostate
[10] = test system: SK-MEL-28 melanoma
[11] = test system: NCI/ADR-RES ovarian
[12] = test system: BT-549 breast
[13] = test system: SW-620 colon
[14] = test system: HCT-116 colon
[15] = test system: UACC-257 melanoma
[16] = test system: MALME-3M melanoma
[17] = test system: SF-268 CNS
[18] = test system: RXF 393 renal
[19] = test system: HOP-62 NSCLC
[20] = test system: EKVX NSCLC
[21] = test system: SK-MEL-5 melanoma
[22] = test system: M14 melanoma
[23] = test system: OVCAR-3 ovarian
[24] = test system: SK-OV-3 ovarian
[25] = test system: U251 CNS
[26] = test system: OVCAR-4 ovarian
[27] = test system: SK-MEL-2 melanoma
[28] = test system: T-47D breast
[29] = test system: HT29 colon
[30] = test system: SR leukemia
[31] = test system: IGROV1 ovarian
[32] = test system: MDA-MB-435
[33] = test system: MCF7 breast
[34] = test system: ACHN renal
[35] = test system: NCI-H460 lung
[36] = test system: HCT-15 colon
[37] = test system: SF-295 CNS
[38] = test system: SNB-75 CNS
[39] = test system: HL-60(TB) leukemia
[40] = test system: NCI-H23 lung
[41] = test system: A498 renal
[42] = test system: NCI-H522 lung
[43] = test system: PC-3 prostate
[44] = test system: SN12C renal
[45] = test system: HCC-2998 colon
[46] = test system: HS 578T breast
[47] = test system: 786-0 renal
[48] = test system: UO-31 renal
[49] = test system: NCI-H226 lung
[50] = test system: COLO 205 colon
[51] = test system: K-562 leukemia
[52] = test system: OVCAR-5 ovarian
[53] = test system: A549 NSCLC
[54] = test system: KM12 colon
[55] = test system: CAKI-1 renal
[56] = test system: MDA-MB-231 breast
[57] = test system: OVCAR-8 ovarian
[58] = test system: RPMI-8226 leukemia
[59] = test system: SF-539 CNS

CC[C@@]12CC(C(=O)OC)=C3Nc4cc5c(cc4[C@@]34CCN(C[C@H]3O[C@H]31)[C@@H]24)[C@@H]1[C@H](O5)[C@@H](O)[C@@]2(CC)CC(C(=O)OC)=C3Nc4cc(OC)ccc4[C@@]34CCN1[C@@H]24
GI50 [1]: 248 nM | TGI [1]: > 43.7 µM | GI50 [2]: 1220 nM | TGI [2]: 23.2 µM | GI50 [3]: 219 nM | TGI [3]: 52.3 µM | GI50 [4]: 168 nM | TGI [4]: 3.83 µM | GI50 [5]: 273 nM | TGI [5]: 1250 nM | GI50 [6]: 660 nM | TGI [6]: > 40.4 µM | GI50 [7]: 181 nM | TGI [7]: 1200 nM | GI50 [8]: 376 nM | TGI [8]: > 54 µM | GI50 [9]: 5.67 µM | TGI [9]: > 54 µM | GI50 [10]: 1380 nM | TGI [10]: > 54 µM | GI50 [11]: 731 nM | TGI [11]: 20.7 µM | GI50 [12]: 307 nM | TGI [12]: > 13.1 µM | GI50 [13]: 1810 nM | TGI [13]: > 54 µM | GI50 [14]: 253 nM | TGI [14]: 2930 nM | GI50 [15]: 436 nM | TGI [15]: > 54 µM | GI50 [16]: 605 nM | TGI [16]: > 43.1 µM | GI50 [17]: 2990 nM | TGI [17]: > 54 µM | GI50 [18]: 1150 nM | TGI [18]: 6.01 µM | GI50 [19]: 313 nM | TGI [19]: > 54 µM | GI50 [20]: 928 nM | TGI [20]: > 54 µM | GI50 [21]: 370 nM | TGI [21]: 2290 nM | GI50 [22]: 416 nM | TGI [22]: > 54 µM | GI50 [23]: 453 nM | TGI [23]: 13.4 µM | GI50 [24]: 336 nM | TGI [24]: 5.48 µM | GI50 [25]: 911 nM | TGI [25]: > 54 µM | GI50 [26]: 656 nM | TGI [26]: > 54 µM | GI50 [27]: 1610 nM | TGI [27]: > 39 µM | GI50 [28]: 466 nM | TGI [28]: > 54 µM | GI50 [29]: 228 nM | TGI [29]: > 54 µM | GI50 [30]: 254 nM | TGI [30]: > 46.5 µM | GI50 [31]: 548 nM | TGI [31]: > 22.8 µM | GI50 [32]: 320 nM | TGI [32]: > 54 µM | GI50 [33]: 174 nM | TGI [33]: > 54 µM | GI50 [34]: 727 nM | TGI [34]: 15.2 µM | GI50 [35]: 1370 nM | TGI [35]: > 54 µM | GI50 [36]: 293 nM | TGI [36]: 4.03 µM | GI50 [37]: 891 nM | TGI [37]: > 44.7 µM | GI50 [38]: 63.1 nM | TGI [38]: > 54 µM | GI50 [39]: 74.8 nM | TGI [39]: 1270 nM | GI50 [40]: 890 nM | TGI [40]: 20.2 µM | GI50 [41]: 698 nM | TGI [41]: 24.7 µM | GI50 [42]: 182 nM | TGI [42]: 2840 nM | GI50 [43]: 657 nM | TGI [43]: > 54 µM | GI50 [44]: 1560 nM | TGI [44]: > 54 µM | GI50 [45]: 423 nM | TGI [45]: 1950 nM | GI50 [46]: 128 nM | TGI [46]: > 54 µM | GI50 [47]: 267 nM | TGI [47]: > 54 µM | GI50 [48]: 167 nM | TGI [48]: > 26 µM | GI50 [49]: 485 nM | TGI [49]: > 54 µM | GI50 [50]: 356 nM | TGI [50]: 2770 nM | GI50 [51]: 218 nM | TGI [51]: > 54 µM | GI50 [52]: 1520 nM | TGI [52]: > 54 µM | GI50 [53]: 706 nM | TGI [53]: > 54 µM | GI50 [54]: 939 nM | TGI [54]: > 54 µM | GI50 [55]: 142 nM | TGI [55]: > 54 µM | GI50 [56]: 330 nM | TGI [56]: > 40.3 µM | GI50 [57]: 736 nM | TGI [57]: > 54 µM | GI50 [58]: 136 nM | TGI [58]: 2210 nM | GI50 [59]: 416 nM | TGI [59]: > 54 µM
